The values below come from article PMC4685510, “A Cell Biologist’s Field Guide to Aurora Kinase Inhibitors” (Frontiers in Oncology, 2015).

The structures appear in SMILES notation.

Common to all, as to assay: biochemical
What all share (assay type): biochemical

Assay [1] addresses 363 human kinases (including Aurora A/B/C) (Homo sapiens, UniProt Q02763). Conditions: TIE2/TEK; for remaining activity at 0.5 µM / remaining activity at 0.1 µM: read-out: % Enzyme Activity (relative to DMSO controls); for remaining activity at 0.1 µM: 100 nM.
Description: (§1) However, the Aurora A/B selectivity ratios derived from our in vitro and in vivo data can be compared to prioritize inhibitors.
For assay [2], the target named is 363 human kinases (including Aurora A/B/C) (Homo sapiens, UniProt Q05397). Conditions: FAK/PTK2, [ATP] 50 µM; for remaining activity at 0.5 µM / remaining activity at 0.1 µM: read-out: % Enzyme Activity (relative to DMSO controls); for remaining activity at 0.1 µM: 100 nM.
Description: as §1
For assay [3], the target named is T1, 363 human kinases (including Aurora A/B/C) (Homo sapiens, UniProt Q8N752).
T1 sequence (Q8N752 1-337): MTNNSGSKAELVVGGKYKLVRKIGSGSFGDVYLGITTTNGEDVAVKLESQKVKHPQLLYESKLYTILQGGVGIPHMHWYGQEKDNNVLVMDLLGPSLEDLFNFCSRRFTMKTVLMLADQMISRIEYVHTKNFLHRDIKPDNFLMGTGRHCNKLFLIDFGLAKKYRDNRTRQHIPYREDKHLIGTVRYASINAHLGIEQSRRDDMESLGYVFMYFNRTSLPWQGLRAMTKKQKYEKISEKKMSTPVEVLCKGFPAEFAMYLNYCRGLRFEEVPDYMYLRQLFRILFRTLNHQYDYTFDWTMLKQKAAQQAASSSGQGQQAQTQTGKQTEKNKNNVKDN
Conditions: CK1a1L, [ATP] 30 µM; for remaining activity at 0.5 µM / remaining activity at 0.1 µM: read-out: % Enzyme Activity (relative to DMSO controls); for remaining activity at 0.1 µM: 100 nM.
Description: as §1

The target of assay [4] is T2, 363 human kinases (including Aurora A/B/C) (Homo sapiens, UniProt Q96PY6).
T2 sequence (Q96PY6 1-1258): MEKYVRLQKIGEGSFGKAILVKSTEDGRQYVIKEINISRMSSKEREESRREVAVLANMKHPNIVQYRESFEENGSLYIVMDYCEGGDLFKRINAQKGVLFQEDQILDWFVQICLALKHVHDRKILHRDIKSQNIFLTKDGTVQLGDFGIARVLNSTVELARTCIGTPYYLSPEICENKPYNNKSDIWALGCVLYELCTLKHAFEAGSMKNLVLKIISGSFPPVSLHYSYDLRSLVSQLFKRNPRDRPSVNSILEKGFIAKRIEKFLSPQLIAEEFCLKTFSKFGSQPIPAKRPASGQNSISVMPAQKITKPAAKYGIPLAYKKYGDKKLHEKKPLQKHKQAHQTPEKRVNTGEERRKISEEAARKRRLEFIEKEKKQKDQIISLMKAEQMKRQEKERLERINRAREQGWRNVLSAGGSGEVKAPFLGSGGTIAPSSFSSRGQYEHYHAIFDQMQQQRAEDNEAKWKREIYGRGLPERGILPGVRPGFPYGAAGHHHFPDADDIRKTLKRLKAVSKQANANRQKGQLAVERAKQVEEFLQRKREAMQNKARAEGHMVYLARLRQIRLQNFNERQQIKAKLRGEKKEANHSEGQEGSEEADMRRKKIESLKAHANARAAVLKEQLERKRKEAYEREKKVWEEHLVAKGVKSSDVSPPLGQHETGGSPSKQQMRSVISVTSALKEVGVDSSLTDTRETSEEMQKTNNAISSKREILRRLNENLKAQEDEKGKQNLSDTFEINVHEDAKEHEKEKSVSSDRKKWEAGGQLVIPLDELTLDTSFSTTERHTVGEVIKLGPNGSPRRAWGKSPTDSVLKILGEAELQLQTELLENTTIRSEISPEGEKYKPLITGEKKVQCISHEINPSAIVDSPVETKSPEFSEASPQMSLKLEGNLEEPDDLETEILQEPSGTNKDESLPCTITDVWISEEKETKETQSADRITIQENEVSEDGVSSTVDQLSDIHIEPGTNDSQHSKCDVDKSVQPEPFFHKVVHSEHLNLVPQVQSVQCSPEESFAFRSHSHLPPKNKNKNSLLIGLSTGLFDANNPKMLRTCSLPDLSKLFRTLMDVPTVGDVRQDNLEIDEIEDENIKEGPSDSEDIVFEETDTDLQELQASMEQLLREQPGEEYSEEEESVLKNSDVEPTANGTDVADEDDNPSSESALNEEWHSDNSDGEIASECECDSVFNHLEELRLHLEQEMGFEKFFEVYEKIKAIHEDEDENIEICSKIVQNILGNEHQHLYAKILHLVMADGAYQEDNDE
Conditions: NEK1; for remaining activity at 0.5 µM / remaining activity at 0.1 µM: read-out: % Enzyme Activity (relative to DMSO controls); for remaining activity at 0.1 µM: 100 nM.
Description: as §1

Assay [5] concerns the target T3, 363 human kinases (including Aurora A/B/C) (Homo sapiens, UniProt Q9NRM7).
T3 sequence (Q9NRM7 1-1088): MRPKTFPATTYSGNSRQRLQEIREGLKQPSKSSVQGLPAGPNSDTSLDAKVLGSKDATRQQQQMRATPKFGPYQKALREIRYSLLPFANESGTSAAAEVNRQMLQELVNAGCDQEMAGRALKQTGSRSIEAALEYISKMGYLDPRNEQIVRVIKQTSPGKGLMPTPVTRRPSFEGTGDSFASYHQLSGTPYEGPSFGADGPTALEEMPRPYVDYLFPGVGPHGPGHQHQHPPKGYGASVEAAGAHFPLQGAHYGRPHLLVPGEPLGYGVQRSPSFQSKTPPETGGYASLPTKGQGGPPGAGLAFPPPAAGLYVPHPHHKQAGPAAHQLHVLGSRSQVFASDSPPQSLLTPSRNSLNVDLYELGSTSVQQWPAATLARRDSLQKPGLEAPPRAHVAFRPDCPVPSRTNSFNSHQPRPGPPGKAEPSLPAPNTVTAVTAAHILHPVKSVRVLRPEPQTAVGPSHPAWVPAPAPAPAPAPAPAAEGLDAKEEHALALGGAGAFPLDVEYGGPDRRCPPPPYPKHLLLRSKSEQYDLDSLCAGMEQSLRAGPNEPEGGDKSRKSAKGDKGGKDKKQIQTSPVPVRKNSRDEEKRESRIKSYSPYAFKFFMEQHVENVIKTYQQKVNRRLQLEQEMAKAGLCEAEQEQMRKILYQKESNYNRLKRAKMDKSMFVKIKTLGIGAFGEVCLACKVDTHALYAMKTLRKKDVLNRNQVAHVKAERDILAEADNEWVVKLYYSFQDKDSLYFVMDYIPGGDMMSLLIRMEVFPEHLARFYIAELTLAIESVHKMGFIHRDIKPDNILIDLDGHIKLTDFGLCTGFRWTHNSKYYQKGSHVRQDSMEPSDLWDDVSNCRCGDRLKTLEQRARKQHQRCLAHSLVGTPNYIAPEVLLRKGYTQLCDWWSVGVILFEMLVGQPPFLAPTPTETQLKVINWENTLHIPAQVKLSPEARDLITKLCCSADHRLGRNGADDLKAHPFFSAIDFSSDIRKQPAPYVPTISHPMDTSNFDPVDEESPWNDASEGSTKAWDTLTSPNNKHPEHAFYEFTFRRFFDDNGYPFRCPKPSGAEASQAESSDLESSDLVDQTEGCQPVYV
Conditions: LATS2; for remaining activity at 0.5 µM / remaining activity at 0.1 µM: read-out: % Enzyme Activity (relative to DMSO controls); for remaining activity at 0.1 µM: 100 nM.
Description: as §1

Sequence of 363 human kinases (including Aurora A/B/C) (Homo sapiens, UniProt Q05397) (Q05397 whole entry): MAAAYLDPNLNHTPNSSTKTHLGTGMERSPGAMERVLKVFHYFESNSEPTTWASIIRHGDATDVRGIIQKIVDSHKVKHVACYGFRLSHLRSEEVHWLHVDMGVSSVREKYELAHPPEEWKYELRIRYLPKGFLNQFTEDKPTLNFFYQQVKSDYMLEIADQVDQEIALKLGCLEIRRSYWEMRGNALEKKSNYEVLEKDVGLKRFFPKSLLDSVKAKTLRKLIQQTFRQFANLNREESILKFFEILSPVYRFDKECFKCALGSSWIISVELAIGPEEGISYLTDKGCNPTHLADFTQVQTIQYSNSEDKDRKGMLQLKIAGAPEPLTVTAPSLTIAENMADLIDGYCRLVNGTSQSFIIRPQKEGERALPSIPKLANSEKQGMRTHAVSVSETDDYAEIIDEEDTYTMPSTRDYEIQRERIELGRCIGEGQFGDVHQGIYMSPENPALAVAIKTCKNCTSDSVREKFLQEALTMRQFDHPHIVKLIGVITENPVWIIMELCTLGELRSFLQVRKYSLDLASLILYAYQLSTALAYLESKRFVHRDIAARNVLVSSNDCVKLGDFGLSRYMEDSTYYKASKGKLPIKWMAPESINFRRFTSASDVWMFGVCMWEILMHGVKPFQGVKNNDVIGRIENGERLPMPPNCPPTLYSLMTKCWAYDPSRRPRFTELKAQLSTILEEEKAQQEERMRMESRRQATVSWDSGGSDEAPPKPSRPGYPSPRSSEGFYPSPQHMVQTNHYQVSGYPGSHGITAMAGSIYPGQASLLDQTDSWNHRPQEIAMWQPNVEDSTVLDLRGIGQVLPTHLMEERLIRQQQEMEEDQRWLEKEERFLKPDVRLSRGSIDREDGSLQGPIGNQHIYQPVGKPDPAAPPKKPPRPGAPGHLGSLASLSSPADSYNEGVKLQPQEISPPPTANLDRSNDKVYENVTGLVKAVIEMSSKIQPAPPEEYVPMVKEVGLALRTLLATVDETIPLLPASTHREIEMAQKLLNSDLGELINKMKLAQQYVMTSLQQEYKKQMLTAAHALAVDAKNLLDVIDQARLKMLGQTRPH
Sequence of 363 human kinases (including Aurora A/B/C) (Homo sapiens, UniProt Q02763) (Q02763 23-1124): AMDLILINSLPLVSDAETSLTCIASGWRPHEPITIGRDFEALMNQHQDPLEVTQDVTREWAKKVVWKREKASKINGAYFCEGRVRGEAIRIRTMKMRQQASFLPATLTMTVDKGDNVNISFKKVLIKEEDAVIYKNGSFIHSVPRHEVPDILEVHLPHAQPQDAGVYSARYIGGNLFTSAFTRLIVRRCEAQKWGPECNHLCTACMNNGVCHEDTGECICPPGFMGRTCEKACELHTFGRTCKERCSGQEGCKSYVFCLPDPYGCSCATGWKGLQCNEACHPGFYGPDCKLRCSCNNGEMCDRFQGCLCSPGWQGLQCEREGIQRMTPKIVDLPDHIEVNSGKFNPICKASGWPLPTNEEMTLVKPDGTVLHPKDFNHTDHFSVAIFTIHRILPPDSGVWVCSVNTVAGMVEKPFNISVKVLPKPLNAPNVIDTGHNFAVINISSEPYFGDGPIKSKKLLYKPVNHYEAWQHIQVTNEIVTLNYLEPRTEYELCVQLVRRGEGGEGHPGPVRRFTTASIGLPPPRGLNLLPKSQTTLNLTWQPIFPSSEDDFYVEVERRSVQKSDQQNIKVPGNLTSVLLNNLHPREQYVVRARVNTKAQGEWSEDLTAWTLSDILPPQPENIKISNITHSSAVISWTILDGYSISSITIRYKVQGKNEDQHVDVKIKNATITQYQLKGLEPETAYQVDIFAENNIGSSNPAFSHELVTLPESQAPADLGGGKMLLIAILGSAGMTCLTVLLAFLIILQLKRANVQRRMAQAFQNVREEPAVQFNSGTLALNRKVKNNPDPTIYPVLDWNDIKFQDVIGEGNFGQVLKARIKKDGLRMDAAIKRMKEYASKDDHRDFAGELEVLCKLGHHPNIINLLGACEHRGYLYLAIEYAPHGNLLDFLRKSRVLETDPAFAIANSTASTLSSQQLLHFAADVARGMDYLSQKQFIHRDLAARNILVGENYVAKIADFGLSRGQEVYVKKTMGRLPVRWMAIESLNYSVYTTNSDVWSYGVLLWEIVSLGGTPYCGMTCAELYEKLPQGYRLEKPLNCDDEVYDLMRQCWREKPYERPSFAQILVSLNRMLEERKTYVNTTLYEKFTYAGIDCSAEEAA

As for `O=C(c1cccc(Cl)c1F)N1CCN(Cc2cccc(Nc3nccs3)n2)CC1` [MK-8745], the “% Enzyme Activity (relative to DMSO controls)” value in assay [1] (500 nM) was 96.47%; in assay [2] (500 nM), 58.97%; in assay [3] (500 nM), 102.40%; in assay [4] (500 nM), 94.59%; in assay [5] (500 nM), 81.73%. Further, the remaining activity at 0.5 µM in assay [1] (500 nM) is 98.2%; in assay [2] (500 nM) it was 60.2%; in assay [3] (500 nM) it was 103%; in assay [4] (500 nM) it was 97.9%; in assay [5] (500 nM), 81.8%.

As to `CCn1cc(-c2ccnc3[nH]c(-c4cccc(CN(C)C)c4)cc23)c(-c2ccc(NC(=O)N(C)C)cc2)n1` [GSK1070916], the remaining activity at 0.1 µM worked out at 39.1% in assay [1]; 95.2% in assay [2]; 108% in assay [3]; 101% in assay [4]; 90.6% in assay [5].

For the compound `O=C(O)[C@]1(Cc2cccc(Nc3nccs3)n2)CC[C@@H](Oc2cccc(Cl)c2F)CC1` [MK-5108], the remaining activity at 0.1 µM was determined as 37.9% in assay [1]; 49.8% in assay [2]; 108% in assay [3]; 101% in assay [4]; 96.8% in assay [5]. Besides, the remaining activity at 0.5 µM worked out at 9.27% in assay [1] (500 nM); 15.2% in assay [2] (500 nM); 115% in assay [3] (500 nM); 103% in assay [4] (500 nM); 81.6% in assay [5] (500 nM).
